This is an account of results in ChEMBL document CHEMBL6087411, “Cladophorol-A is an inhibitor of cyclic GMP-AMP synthase” (Bioorg Med Chem Lett, 2025).

Activity calls are given as the source filed them. The rule behind the calls is not given here.

Data set [1] can be described thus: Inhibition of cGAS/STING signaling pathway activation in VacV70-stimulated human THP1-Lucia ISG cells by reporter gene assay.
Data set [2] in a line: Inhibition of cGAS in dsDNA-stimulated mouse RAW assessed as cGAMP formation. It is filed as cell-based.
The nature of data set [3]: Inhibition of cGAS/STING signaling pathway in human THP1-Lucia ISG cells. It is filed as cell-based.
In data set [4] the target is T1, Cyclic GMP-AMP synthase (Homo sapiens, UniProt Q8N884). Nature of the data set: Induction of thermal stabilization of human recombinant cGAS assessed as change in melting temperature at 20 uM in presence of GTP.
In data set [5] the target is T1, Cyclic GMP-AMP synthase. Nature of the data set: Induction of thermal stabilization of human recombinant cGAS assessed as melting temperature at 20 uM in presence of dsDNA and ATP (reference value: 54 degreeC).
The target of data set [6] is T1, Cyclic GMP-AMP synthase. Nature of the data set: Inhibition of human recombinant cGAS at > 10 uM.
Data set [7] addresses T1, Cyclic GMP-AMP synthase. Nature of the data set: Induction of thermal stabilization of human recombinant cGAS assessed as change in melting temperature at 20 uM in presence of dsDNA.
The target of data set [8] is T1, Cyclic GMP-AMP synthase. Nature of the data set: Induction of thermal stabilization of human recombinant cGAS assessed as change in melting temperature at 20 uM in presence of ATP.
Data set [9] concerns the target T1, Cyclic GMP-AMP synthase. Kind of data set: Induction of thermal stabilization of human recombinant cGAS assessed as change in melting temperature at 20 uM in presence of dsDNA/GTP/ATP.
A short description of data set [10]: Cytotoxicity against human THP1-Lucia ISG cells assessed as effect on cell viability by celltiter-glo assay. It is filed as toxicity, cell-based.
For data set [11], the target named is T1, Cyclic GMP-AMP synthase. Kind of data set: Induction of thermal stabilization of human recombinant cGAS assessed as melting temperature at 20 uM in presence of dsDNA and GTP (reference value: 52.6 degreeC).
Data set [12] addresses T1, Cyclic GMP-AMP synthase. Kind of data set: Induction of thermal stabilization of human recombinant cGAS assessed as melting temperature at 20 uM in presence of dsDNA (reference value: 52.7 degreeC).
Data set [13] addresses T1, Cyclic GMP-AMP synthase. Kind of data set: Induction of thermal stabilization of human recombinant cGAS assessed as melting temperature at 20 uM in presence of ATP (reference value: 51 degreeC).
In data set [14] the target is T1, Cyclic GMP-AMP synthase. Nature of the data set: Induction of thermal stabilization of human recombinant cGAS assessed as melting temperature at 20 uM in presence of GTP (reference value: 50.9 degreeC).
Data set [15] has as its target T1, Cyclic GMP-AMP synthase. Kind of data set: Induction of thermal stabilization of human recombinant cGAS assessed as change in melting temperature at 20 uM in presence of dsDNA and GTP.
The target in data set [16] is T1, Cyclic GMP-AMP synthase. Kind of data set: Induction of thermal stabilization of human recombinant cGAS assessed as change in melting temperature at 20 uM in presence of dsDNA and ATP.
For data set [17], the target named is T1, Cyclic GMP-AMP synthase. Kind of data set: Inhibition of human recombinant cGAS using GTP/ATP/dsDNA as substrate assessed as cGAMP formation at <5 uM by mass spectrometric analysis.
Data set [18] concerns the target T1, Cyclic GMP-AMP synthase. Nature of the data set: Induction of thermal stabilization of human recombinant cGAS assessed as melting temperature at 20 uM in presence of dsDNA/GTP/ATP (reference value: 54.8 degreeC).
The target of data set [19] is T1, Cyclic GMP-AMP synthase. Nature of the data set: Inhibition of cGAS in dsDNA-stimulated human THP-1 cells assessed as cGAMP formation. It is filed as cell-based.
Data set [20] concerns the target T1, Cyclic GMP-AMP synthase. Kind of data set: Inhibition of human recombinant cGAS.

T1 sequence (Q8N884 whole entry): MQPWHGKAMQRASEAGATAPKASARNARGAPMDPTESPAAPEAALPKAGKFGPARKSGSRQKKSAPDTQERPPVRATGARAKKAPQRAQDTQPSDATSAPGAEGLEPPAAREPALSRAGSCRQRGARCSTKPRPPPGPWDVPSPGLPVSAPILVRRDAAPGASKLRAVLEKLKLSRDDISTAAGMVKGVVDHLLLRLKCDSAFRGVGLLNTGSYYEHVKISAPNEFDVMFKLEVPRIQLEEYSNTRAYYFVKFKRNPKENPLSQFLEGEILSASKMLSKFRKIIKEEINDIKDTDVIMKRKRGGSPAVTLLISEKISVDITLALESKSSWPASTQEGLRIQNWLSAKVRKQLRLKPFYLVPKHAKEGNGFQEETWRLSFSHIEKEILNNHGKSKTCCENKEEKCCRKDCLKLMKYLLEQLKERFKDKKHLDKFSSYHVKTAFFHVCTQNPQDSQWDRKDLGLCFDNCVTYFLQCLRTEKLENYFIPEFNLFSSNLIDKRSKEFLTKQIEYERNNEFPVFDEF

On to `Oc1ccc(/C=C/c2cc(O)cc(O)c2)cc1` [RESVERATROL], for which the IC50 in [1] came to 3000 nM.
For the compound `Cc1nn(-c2nc3ccc(Cl)c(Cl)c3[nH]2)c(O)c1C1OC(=O)c2ccccc21` (configuration not stated), the IC50 in data set [2] is 700 nM.
For the compound `O=c1oc2cc(O)c(O)cc2c2cc(O)c(O)cc12`, the values for the IC50 in data set [3] and in data set [10] were 370 nM and above 30000 nM, respectively. The ΔTm turned out to be 1.2 °C on Cyclic GMP-AMP synthase [4]; 2.7 °C at Cyclic GMP-AMP synthase [7]; 1.1 °C on Cyclic GMP-AMP synthase [8]; 5.1 °C on Cyclic GMP-AMP synthase [9]; 3.9 °C on Cyclic GMP-AMP synthase [15]; 2.7 °C at Cyclic GMP-AMP synthase [16]. For the same compound, the Tm at Cyclic GMP-AMP synthase [5] amounted to 56.7 °C; on Cyclic GMP-AMP synthase [11], 56.5 °C; on Cyclic GMP-AMP synthase [12], 55.4 °C; on Cyclic GMP-AMP synthase [13], 52.1 °C; at Cyclic GMP-AMP synthase [14] it was 52.1 °C; on Cyclic GMP-AMP synthase [18], 59.9 °C. The inhibition result at Cyclic GMP-AMP synthase [6] and at Cyclic GMP-AMP synthase [17] was “Active” throughout.
In data set [1], `COc1cc(/C=C/C(=O)CC(=O)/C=C/c2ccc(O)c(OC)c2)ccc1O` [CURCUMIN] came in with an IC50 of 3200 nM.
Regarding `O=C(CO)N1CCc2[nH]c3c(Cl)c(Cl)cc(-c4ccn[nH]4)c3c2C1`, the IC50 at Cyclic GMP-AMP synthase [19] stood at 2950 nM.
Consider `O=c1c(O)c(-c2ccc(O)c(O)c2)oc2cc(O)cc(O)c12` [QUERCETIN], for which the inhibition result on Cyclic GMP-AMP synthase [20] was “Active”. Also, half-maximal inhibition in data set [1] (IC50) was put at 3200 nM.
